What was measured:
[1] = test system: S100A8 and S100A9; test: S100A8 and S100A9 levels in PBMCs and plasma of 4T1 allografted mice; type: in vivo, mouse; conditions: FIG. 15C
[2] = test system: ISR-induced proteins (PSAT1, ATF4, TRIB3, ASNS); test: JESS measurement of ISR-induced proteins in primary 4T1 tumors; type: in vivo, mouse; conditions: 3 mg/kg HC-7366; 7 days post treatment initiation; FIG. 7C
Procedure: A small (lentil-sized) piece of frozen tumor was lysed in 500 μl of lysis buffer containing 2% SDS, 10% betamercaptoethanol, protease and phosphatase inhibitors (Roche, 04 693 159 001 and 04 906 837 001), and 1× Benzonase (Sigma, E1014-25KU). Each sample was homogenized using a polytron (PT 10-35 GT) for 30 seconds, and heated at 95° C. for 5 minutes. Protein concentrations were determined using a 660 nm Protein assay (Pierce, 22662), with the detergent compatibility reagent (Pierce, 22663), according to manufacturer instructions.
Protein samples were analyzed by JESS (ProteinSimple) using the 12-230 kDa separation module (ProteinSimple, SM-W004), and antibodies targeting PSAT1 (Proteintech, 10501-1-AP), ATF4 (AbCam, ab184909), TRIB3 (Proteintech, 66702-1), and ASNS (Proteintech, 14681-1-AP).

[3] = test system: BM-derived MDSCs / T-cells; test: Ex vivo co-culture of bone marrow-derived MDSCs with purified T-cells in tryptophan-depleted medium; type: cell-based, mouse; conditions: 0.1 μM HC-7366, 1:8 MDSCs:T-cells, FIG. 11B
Procedure: Single cell suspensions from mouse bone marrow were prepared. Cells were cultured in RPMI complete medium supplemented with GMCSF & IL6 (10 μg/mL) for 4 days to differentiate cells into PMN-MDSCs. T-cells were purified from mouse spleens with EasySep Mouse T-cell isolation kit per manufacturer's instructions Purified T-cells cells were then stained with CellTrace Violet dye (thermo) per manufacturer's instructions. Differentiated MDSCs and purified T-cells were co-cultured in tryptophan-depleted medium+/−HC-7366 (0.1 μM) for […], at a ratio of 1:8 MDSCs:T-cells. Proliferation of T-cells was measured by dilution of CTV via flow cytometry on a BD LSR Fortessa.

[4] = test system: MDSCs and T-cells; test: Flow cytometry of single cell suspensions from spleens and lungs of 4T1 mice; type: in vivo, mouse
Description: Tissue processing for single cell suspensions: • Spleen: Spleens were mashed through wetted 70 μm nylon strainer using syringe plunger. Strainers were rinsed with RPMI+5% FBS. Cells were pelleted and RBCs lysed with ACK lysis buffer (Gibco) per manufacturer's instructions. Cells were resuspended in RPMI+5% FBS and counted prior to plating for staining. • Lungs: Lungs were homogenized and enzymatically digested using a Mouse Tumor Dissociation Kit (miltenyi) per manufacturer's instructions. Cells were resuspended in RPMI+5% FBS and counted prior to plating for staining. During the digestion at 37° C., brefeldin A (Biolegend) was included in the enzyme mix to prevent export of cytokines.
1E6 cells per sample were plated in 96 well plates and extracellular staining was performed per standard procedures. Following extracellular staining, cells were fixed and permeabilized using FoxP3/Transcription Factor Staining Buffer Kit (Tonbo) and intracellular staining was performed per standard procedures. The following antibodies were used.
Following staining, flow cytometry was performed on a Cytek Aurora cytometer and analyzed using FlowJo software.

[5] = test system: 4T1 mouse breast cancer cell line; test: 4T1 murine orthotopic allograft tumor model, lung metastases (H&E analysis); type: in vivo
Description: (§1) 4T1 mouse breast cancer cell line was purchased from American Type Culture Collection (ATCC). Cells were free of human and animal pathogens as tested by h-IMPACT-I and IMPACT-III. Additionally, the genetic profile of the cells matched with the ECACC reference standard as tested by STR based DNA fingerprinting assay. Cells were maintained in RPMI 1640 with 10% FBS, and cultured up to 4 passages prior to implantation. Cells were harvested at ˜80% confluence, washed twice with RPMI 1640 without FBS and suspended in RPMI 1640 without FBS at 10×10^6 cells/mL for implantation.
(§2) Female Balb/c mice (7-8 week of age) were implanted into the right 4th mammary fat pad under Isoflurane anesthesia with 0.5×10^6 4T1 cells/mouse in a total volume of […] on Day 0 Animals were randomized into treatment groups when the average tumor volume reached 50-100 mm^3 on Day 6 post inoculation. Tumors were measured via caliper 2×/week. Tumor volume was calculated using the formula [tumor volume (mm^3)=π/6×length×width^2) Animals were sacrificed at either 7, 14, or 21 days post treatment via CO2 asphyxiation.
(§3) Lungs were perfused with PBS through the heart to remove as much blood as possible prior to collection. Spleens were collected and weighed. […] The remaining lungs were collected with remaining spleen in RPMI medium+5% FBS on ice for flow cytometry. Separate animals were enrolled for lung IHC analyses. Following euthanasia of these animals, lungs were inflated with 10% neutral buffered formalin prior to formalin fixation for 48 hours and paraffin embedding.
Multiple paraffin sections more than 200 μm apart were cut for each lung sample. […] Images were analyzed using custom-written macros in ImageJ/FIJI (NIH) analyzing the relative proportion of tumor regions to the whole lung area. The tumor regions were transferred onto the images of immune-stained sections and intensities of ASNS and PSAT1 signals within these tumor regions were quantified. […]

[6] = Spleen weight (splenomegaly) in 4T1 allografted mice; type: in vivo, mouse; conditions: especially at the activating 3 mg/kg dose level; 3 independent studies; FIG. 8B
Procedure: as §3

[7] = test system: ISR-induced amino acid biosynthesis proteins ASNS and PSAT1; test: IHC of ISR-induced proteins in lungs of 4T1 tumor-bearing mice; type: in vivo, mouse; conditions: 3 mg/kg HC-7366; 21 days post treatment initiation; FIG. 7B
Procedure: as §3
Multiple paraffin sections more than 200 μm apart were cut for each lung sample. Three sections were stained with H&E on Leica Autostainer while one adjacent section was immuno-stained for ASNS (Cell Signaling #92479) and PSAT1 (Proteintech #10501-1-AP) using the Bond Rx stainer (Leica Biosystems). Stained slides were digitized using Versa 200 slide scanner (Leica Biosystems). Images were analyzed using custom-written macros in ImageJ/FIJI (NIH) analyzing the relative proportion of tumor regions to the whole lung area. The tumor regions were transferred onto the images of immune-stained sections and intensities of ASNS and PSAT1 signals within these tumor regions were quantified. (Graphing and statistics were performed using Prism Graphpad).

[8] = test system: CD4 and CD8 T-cells, S100A8/S100A9 in CD11b+ cells; test: Multiplex imaging of FFPE lung samples from 4T1 allografted mice; type: in vivo, mouse
Procedure: Slides were cut from FFPE lung samples. Slides were deparaffinized, rehydrated and heat mediated antigen retrieval was conducted with AR6 buffer (Akoya). Slides were blocked with Roche diagnostics antibody diluent (Fisher) and stained with primary antibodies for 1 hr at 110 rpm. HRP-conjugated secondary antibodies were added for 10 mins at 110 rpm followed by 10 mins with OPAL detection dye (Akoya). For multiplex staining, this process was repeated starting at the antigen retrieval stage. Multispectral Images were captured on the Polaris imaging system (Akoya) and spectral unmixing and cell segmentation was performed using Inform Tissue Finder software (Akoya). Imaging data was converted into .csv files and imported into Flowjo for immune phenotyping.
Primary antibodies used were rat anti-mouse CD4 (clone 4SM95, Thermo 14-9766-82-82, paired with Opal 620), rabbit anti-mouse Ki67 (clone SP6, Thermo MA5-14520, paired with Opal 780), rabbit anti-mouse CD8a (clone D4W2Z, Cell Signaling 98941, paired with Opal 520). Rabbit anti-mouse S1008A (Polyclonal, Proteintech 15792-1-AP, paired with Opal 520), rabbit anti-mouse S1009A (Polyclonal, Proteintech 26992-1-AP, paired with Opal 570), rabbit anti-mouse CD11b (clone EPR1344, Abcam 133357, paired with Opal 690).

[9] = test system: myeloid cells (immune gene transcripts); test: Quantigene gene expression analysis of tumors and spleens of 4T1 mice; type: in vivo, mouse; conditions: Day 21 of Tx, FIG. 9
Procedure: Mouse tumor and spleen tissues were snap frozen and stored in −80° C. freezer. The frozen tissue was soaked in 10× volume of the RNAlater®-ICE (ThermoFisher) at −20° C. for >16 hr. Then the tissue was transferred into M tube (Miltenyi Biotech) containing RLT lysis buffer (Qiagen) and homogenized by gentleMACS Dissociators with program of RNA_02 (Miltenyi Biotech). Total RNA was isolated from homogenized tissue using the RNeasy Plus Mini Kit (Qiagen) RNA concentration was determined by Epoch Microplate Spectrophotometer (Biotek).
A custom-made 77-plex mouse Immune QuantiGene Assay kit (ThermoFisher Scientific) using a bead-based multiplex assay were used to measure the expression of 69 immune genes, 4 stress genes plus 4 reference genes with Luminex xMAP 200 (ThermoFisher Scientific) according to the manufacturer's instructions.

[10] = test system: primary 4T1 tumors; test: 4T1 orthotopic allograft, primary tumor volume; type: in vivo, mouse; conditions: PO, BID; three independent studies; FIG. 4
Description: as §1, §2

[11] = 3 mg/kg HC-7366, Day 14, FIGS. 10B-10C
[12] = 4T1 allografted mice, FIGS. 15A-15B
[13] = greater in metastatic lesions than in normal tissue, FIGS. 12E-12F

For `CNC(=O)c1ncn2cc(-c3c(F)ccc(NS(=O)(=O)c4cc(Cl)cnc4OC)c3F)ncc12` [HC-7366, 6-(3-((5-chloro-2-methoxypyridine)-3-sulfonamido)-2,6-difluorophenyl)-N-methylimidazo[1,5-a]pyrazine-1-carboxamide], the “S100A8 and S100A9 levels in PBMCs” value [1] was “significant reductions”, the “S100A8 and S100A9 levels in plasma” value [1] was “significant reductions” and the “ASNS protein in primary 4T1 tumors (JESS)” value [2] was “Increases”. The “ATF4 protein in primary 4T1 tumors (JESS)” value [2] was “Increases”, the “PSAT1 protein in primary 4T1 tumors (JESS)” value [2] was “Increases” and the “TRIB3 protein in primary 4T1 tumors (JESS)” value [2] was “Increases”. For the same compound, the “T-cell proliferation in the presence of BM-derived MDSCs (CTV dilution)” value [3] was “significantly rescued T-cell proliferation”, the “CD86 on MDSCs in the spleen and lungs” value [4, 11] was “significantly increased” and the “MHCII on MDSCs in the spleen and lungs” value [4, 11] was “significantly increased”. For the same compound, the “CD98 expression on CD8 T-cells in the lungs” value ([4]; 3 mg/kg HC-7366, FIG. 14A) was “not on CD8 T-cells”, the “CD98 expression on MDSCs in the lungs” value ([4]; 3 mg/kg HC-7366, FIG. 14A) was “significantly increased” and the “CD98 expression on MDSCs and CD8 T-cells in the spleen” value ([4]; 3 mg/kg HC-7366, both cell subsets, FIG. 14B) was “increased CD98 expression”. The “MDSC frequency in spleens and lungs” value ([4]; 3 mg/kg HC-7366, both organs, FIG. 10A) was “significantly reduced”, the “activation markers of CD4 and CD8 T-cells in lungs (intracellular flow cytometry)” value ([4]; Day 21 of Tx, FIGS. 13A-13B) was “significantly increased activation markers” and the “activation markers of CD4 and CD8 T-cells in spleens (intracellular flow cytometry)” value ([4]; Day 21 of Tx, FIGS. 13C-13D) was “not in spleens”. The “overall metastatic area in lung samples” value ([5]; 30 mg/kg HC-7366, 4T1 allografted mice, FIGS. 1A-1B) was “significant reduction in overall metastatic area”, the “anti-metastatic effect in lungs of tumor bearing mice” value ([5]; 1-3 mg/kg HC-7366, PO, BID, lungs collected 21 days after treatment initiation, FIGS. 5A-5C) was “consistent anti-metastatic effect” and the “number of lung metastases” value ([5]; combination therapy of HC-7366 with anti-PD-1 therapy, FIG. 2) was “significant reduction in the number of lung metastases”. For the same compound, the “splenomegaly (spleen weight)” value [6] was “significantly decreases splenomegaly”, the “ASNS expression in lungs (IHC)” value [7] was “Significant increases” and the “PSAT1 expression in lungs (IHC)” value [7] was “Significant increases”. For the same compound, the “S100A8 and S100A9 levels in lung metastases” value [8, 12] was “significant reductions”, the “S100A8 and S100A9 levels in normal lung tissue” value [8, 12] was “significant reductions” and the “CD8 T-cells in metastatic lesions of lung” value ([8]; HC-7366 treated 4T1 allografted mice, FIG. 12C) was “significantly increased”. For the same compound, the “CD8 T-cells in normal lung tissue” value ([8]; HC-7366 treated 4T1 allografted mice, increase compared with that in metastatic lesions, FIG. 12D) was “to a lesser degree”, the “Ki67 expression of CD4 T-cells in lung” value [8, 13] was “significantly increased Ki67 expression” and the “Ki67 expression of CD8 T-cells in lung” value [8, 13] was “significantly increased Ki67 expression”. The “gene expression in MDSC-enriched spleens” value ([9]; 3 mg/kg HC-7366) was “consistent increases in immune activation transcripts and reductions in inhibitory transcripts”, the “gene expression in tumor tissue” value [9] was “did not show consistent effects” and the “efficacy on primary 4T1 tumors (tumor volume)” value [10] was “little to no efficacy”.
